According to ChEMBL document CHEMBL1147904, “Probing length effects and mechanism of cell penetrating agents mounted on a polyproline helix scaffold” (Bioorg Med Chem Lett, 2007):
Non-standard residues stand in square brackets, D forms with d. Residues, ends and D or L forms follow the SMILES beside them. *: point of attachment. X1 = O=C(O)c1cc(C(=O)*)ccc1-c1c2ccc(=O)cc-2oc2cc(O)ccc12; Propyl(3-guanidino) = N=C(N)NCCC*; Hyp = O=C(O)[C@@H]1C[C@@H](O)CN1; Isobutyl = CC(C)C*

Experiments:
[1] = tested on: MCF7; test: Decrease in cellular uptake in MCF7 cells at 15 uM in presence of sodium azideafter 6 hrs by flow cytometry; assay type: ADME, cell-based; set-up: scale not given: the % may be the effect or the level left; details: human, mcf7, 6 h
[2] = Cytotoxicity against MCF7 cells assessed as cell viability at 15 uM after 24 hrs by flow cytometry; assay type: cell-based; details: human, read-out: Activity
[3] = tested on: MCF7; test: Cellular uptake in MCF7 cells assessed as mean fluorescence at 5 uM after 6 hrs; assay type: ADME, cell-based; details: human, mcf7, 6 h
[4] = tested on: MCF7; test: Cellular uptake in MCF7 cells assessed as mean fluorescence at 1 uM after 6 hrs; assay type: ADME, cell-based; details: human, mcf7, 6 h
[5] = tested on: MCF7; test: Decrease in cellular uptake in MCF7 cells at 15 uM at 4 degC after 6 hrs; assay type: ADME, cell-based; set-up: scale not given: the % may be the effect or the level left; details: human, mcf7, 6 h
[6] = tested on: MCF7; test: Cellular uptake in MCF7 cells assessed as mean fluorescence at 10 uM after 6 hrs; assay type: ADME, cell-based; details: human, mcf7, 6 h
[7] = tested on: MCF7; test: Decrease in cellular uptake in MCF7 cells at 15 uM at 37 degC after 6 hrs; assay type: ADME, cell-based; set-up: scale not given: the % may be the effect or the level left; details: human, mcf7, 6 h
[8] = tested on: MCF7; test: Cellular uptake in MCF7 cells assessed as mean fluorescence at 15 uM after 6 hrs; assay type: ADME, cell-based; details: human, mcf7, 6 h

Activity [1]	Activity [3] [a.u.]	Activity [4] [a.u.]	Activity [5] [%]	Activity [6] [a.u.]	Activity [7] [%]	Activity [8] [a.u.]	Structure (SMILES)	viability at 24 h, 15 µM [2] [%]
19%	30	4	82	177	89	420	CC(C)CO[C@@H]1C[C@@H](C(=O)N2C[C@H](OCCCNC(=N)N)C[C@H]2C(=O)N2C[C@H](OCCCNC(=N)N)C[C@H]2C(=O)N2C[C@H](OCC(C)C)C[C@H]2C(=O)N2C[C@H](OCCCNC(=N)N)C[C@H]2C(=O)N2C[C@H](OCCCNC(=N)N)C[C@H]2C(=O)N2C[C@H](OCC(C)C)C[C@H]2C(=O)N2C[C@H](OCCCNC(=N)N)C[C@H]2C(=O)N2C[C@H](OCCCNC(=N)N)C[C@H]2C(=O)N2C[C@H](OCC(C)C)C[C@H]2C(=O)N2C[C@H](OCCCNC(=N)N)C[C@H]2C(=O)N2C[C@H](OCCCNC(=N)N)C[C@H]2C(=O)N2C[C@H](OCC(C)C)C[C@H]2C(N)=O)N(C(=O)CNC(=O)c2ccc(-c3c4ccc(=O)cc-4oc4cc(O)ccc34)c(C(=O)O)c2)C1 (X1-G[Hyp](Isobutyl)[Hyp](Propyl(3-guanidino))[Hyp](Propyl(3-guanidino))[Hyp](Isobutyl)[Hyp](Propyl(3-guanidino))[Hyp](Propyl(3-guanidino))[Hyp](Isobutyl)[Hyp](Propyl(3-guanidino))[Hyp](Propyl(3-guanidino))[Hyp](Isobutyl)[Hyp](Propyl(3-guanidino))[Hyp](Propyl(3-guanidino))[Hyp](Isobutyl)-NH2)	80
Not Active	7	2	82	15	89	63	CC(C)CO[C@@H]1C[C@@H](C(=O)N2C[C@H](OCCCNC(=N)N)C[C@H]2C(=O)N2C[C@H](OCCCNC(=N)N)C[C@H]2C(=O)N2C[C@H](OCC(C)C)C[C@H]2C(=O)N2C[C@H](OCCCNC(=N)N)C[C@H]2C(=O)N2C[C@H](OCCCNC(=N)N)C[C@H]2C(=O)N2C[C@H](OCC(C)C)C[C@H]2C(=O)N2C[C@H](OCCCNC(=N)N)C[C@H]2C(=O)N2C[C@H](OCCCNC(=N)N)C[C@H]2C(=O)N2C[C@H](OCC(C)C)C[C@H]2C(N)=O)N(C(=O)CNC(=O)c2ccc(-c3c4ccc(=O)cc-4oc4cc(O)ccc34)c(C(=O)O)c2)C1 (X1-G[Hyp](Isobutyl)[Hyp](Propyl(3-guanidino))[Hyp](Propyl(3-guanidino))[Hyp](Isobutyl)[Hyp](Propyl(3-guanidino))[Hyp](Propyl(3-guanidino))[Hyp](Isobutyl)[Hyp](Propyl(3-guanidino))[Hyp](Propyl(3-guanidino))[Hyp](Isobutyl)-NH2)	80
